Test results: patent US8765693B2, “Method of inhibiting premature aging of human skin caused by exposure to infrared radiation” (L'Oreal, priority 2012, dated 2014)

Test system: IRA induced MMP-1
Test: IRA-induced MMP-1 mRNA expression in primary human dermal fibroblasts
Format: cell-based
Conditions: for Effects in IRA treated cells: inhibition (MMP-1 mRNA): 24 hrs pre-incubation, 360 J/cm^2 Infrared A, harvested 24 hrs after irradiation; for Effect on IRA induced MMP-1 in vitro (in words): primary human dermal fibroblasts
Description: Primary Human Dermal Fibroblasts
Hydrosun 500H IRA device (Hydrosun Medizintechnik GmbH, Müllheim, Germany). The IRA device was water-filtered and equipped with a black filter and emits wavelengths between 760 and 1400 nm leading to an irradiance of 360 mW/cm^2.
Baicalin: stock 44.8 mM in DMSO, and diluted to 10 μM, 25 μM
Phloretin: stock 50 mM in DMSO, and diluted to 1 μM, 5 μM, and 10 μM as final treatment conditions.
Neohesperidin dihydrochalcone: stock 710 mM in DMSO, and diluted to 100 μM, 500 μM, and 1 mM as final treatment conditions.
Cells were incubated for 24 hrs after irradiation, and then harvested to have MMP-1 mRNA analyzed.

SMILES: O=C(O)[C@H]1O[C@@H](Oc2cc3oc(-c4ccccc4)cc(=O)c3c(O)c2O)[C@H](O)[C@@H](O)[C@@H]1O [Baicalin]
- Effects in IRA treated cells: inhibition (MMP-1 mRNA) (10 μM): 26% inhibition with 10 μM
- Effects in IRA treated cells: inhibition (MMP-1 mRNA) (25 μM (0.001%)): 100% inhibition with 25 μM+ (0.001%)
- Effect on IRA induced MMP-1 in vitro (in words): reduced IRA induced MMP-1

SMILES: COc1ccc(CCC(=O)c2c(O)cc(O[C@@H]3O[C@H](CO)[C@@H](O)[C@H](O)[C@H]3O[C@@H]3O[C@@H](C)[C@H](O)[C@@H](O)[C@H]3O)cc2O)cc1O [Neohesperidin dihydrochalcone]
- Effects in IRA treated cells: inhibition (MMP-1 mRNA) (100 μM (0.006%)): 100% inhibition with 100 μM+ (0.006%)
- Effects in IRA treated cells: inhibition (MMP-1 mRNA) (500 μM (0.03%)): 100% inhibition with 500 μM+ (0.03%)
- Effects in IRA treated cells: inhibition (MMP-1 mRNA) (1 mM (0.06%)): 100% inhibition with 1 mM+ (0.06%)
- Effect on IRA induced MMP-1 in vitro (in words): reduced IRA induced MMP-1

SMILES: O=C(CCc1ccc(O)cc1)c1c(O)cc(O)cc1O [Phloretin]
- Effects in IRA treated cells: inhibition (MMP-1 mRNA) (1 μM (0.00002%)): 22% inhibition with 1 μM+ (0.00002%)
- Effects in IRA treated cells: inhibition (MMP-1 mRNA) (5 μM (0.00014%)): 78% inhibition with 5 μM+ (0.00014%)
- Effects in IRA treated cells: inhibition (MMP-1 mRNA) (10 μM): 68% inhibition with 10 μM+ (0.0028%)
- Effect on IRA induced MMP-1 in vitro (in words): reduced IRA induced MMP-1
